Data as given in ChEMBL document CHEMBL1138974 (Bioorg Med Chem Lett, 2006).

test system: not listed separately; assay: Intrinsic clearance in human microsome; format: ADME; conditions: microsomes

Compound | microsomal CLint
O=C1NCC(c2ccc(F)cc2)C12CCN(C1CCCCC1(O)c1ccccc1F)CC2 (single isomer, unassigned; diastereomer 4) | 28 µL/min/mg
O=C1NCC(c2ccc(F)cc2)C12CCN(C1CCCCC1(O)c1cccc(F)c1)CC2 (single isomer, unassigned; diastereomer 2) | 11 µL/min/mg

target: Nociceptin receptor (Homo sapiens, UniProt P41146); assay: Displacement of [3H]NOP from human NOP receptors expressed in HEK293 cells; format: cell-based; conditions: not given
Sequence (P41146 whole entry): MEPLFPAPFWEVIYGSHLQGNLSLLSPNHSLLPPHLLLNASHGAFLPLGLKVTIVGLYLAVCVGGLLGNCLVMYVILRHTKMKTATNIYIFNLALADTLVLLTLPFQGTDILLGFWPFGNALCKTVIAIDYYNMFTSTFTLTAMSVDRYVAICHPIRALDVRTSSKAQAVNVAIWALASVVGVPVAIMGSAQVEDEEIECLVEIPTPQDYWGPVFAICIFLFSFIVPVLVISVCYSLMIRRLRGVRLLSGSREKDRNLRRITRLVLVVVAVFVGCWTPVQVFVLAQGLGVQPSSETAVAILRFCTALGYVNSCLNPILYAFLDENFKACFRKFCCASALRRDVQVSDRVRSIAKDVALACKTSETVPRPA

Compound | IC50
O=C1NCC(c2ccccc2)C12CCN(C1CCCCC1(O)c1ccc(F)cc1)CC2 (single isomer, unassigned; diastereomer 3) | > 10 µM
O=C1NC[C@@H](c2ccccc2)C12CCN(C1CCCCC1c1ccccc1)CC2 (stereo in doubt; 3) | > 10 µM

same assay, conditions: hek293

Compound | IC50
O=C1NCC(c2ccccc2)C12CCN(C1CCCCC1(O)c1ccc(F)cc1)CC2 (single isomer, unassigned; diastereomer 2) | > 10 µM

target: T1, Sodium- and chloride-dependent glycine transporter 2 (Homo sapiens, UniProt Q9Y345); assay: Inhibition of [3H]glycine uptake at human GlyT2 by radiometric assay; conditions: not given
T1 sequence (Q9Y345 whole entry): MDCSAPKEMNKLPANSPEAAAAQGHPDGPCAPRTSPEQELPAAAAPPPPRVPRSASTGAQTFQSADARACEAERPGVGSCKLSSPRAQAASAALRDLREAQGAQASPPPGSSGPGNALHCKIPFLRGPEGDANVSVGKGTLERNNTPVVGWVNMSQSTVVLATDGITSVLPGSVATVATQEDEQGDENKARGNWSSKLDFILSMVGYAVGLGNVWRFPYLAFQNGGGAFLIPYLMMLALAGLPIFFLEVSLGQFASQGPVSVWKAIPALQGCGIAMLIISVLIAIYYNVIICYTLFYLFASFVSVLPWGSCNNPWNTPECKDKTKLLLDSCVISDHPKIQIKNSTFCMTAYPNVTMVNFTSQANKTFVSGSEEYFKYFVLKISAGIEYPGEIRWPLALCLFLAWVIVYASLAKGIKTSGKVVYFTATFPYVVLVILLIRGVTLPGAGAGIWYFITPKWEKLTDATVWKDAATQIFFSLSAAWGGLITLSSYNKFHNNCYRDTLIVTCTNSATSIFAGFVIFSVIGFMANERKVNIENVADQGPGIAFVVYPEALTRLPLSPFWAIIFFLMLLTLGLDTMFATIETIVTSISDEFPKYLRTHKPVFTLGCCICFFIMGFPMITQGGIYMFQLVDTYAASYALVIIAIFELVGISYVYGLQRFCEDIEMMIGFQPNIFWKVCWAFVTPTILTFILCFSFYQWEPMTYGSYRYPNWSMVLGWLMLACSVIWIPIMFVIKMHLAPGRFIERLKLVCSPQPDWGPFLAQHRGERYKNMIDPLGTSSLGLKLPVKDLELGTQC

Compound | EC50
O=C1NCC(c2ccccc2)C12CCN(C1CCCCC1(O)c1ccc(F)cc1)CC2 (single isomer, unassigned; diastereomer 3) | > 30 µM
O=C1NC[C@@H](c2ccccc2)C12CCN(C1CCCCC1c1ccccc1)CC2 (stereo in doubt; 3) | 25 µM
O=C1NCN(c2ccccc2)C12CCN(C1CCCCC1(O)c1ccccc1)CC2 (stereo not given) | 72 µM

target: T2, Sodium- and chloride-dependent glycine transporter 1 (Homo sapiens, UniProt P48067); assay: Inhibition of [3H]glycine uptake at human GlyT1 by radiometric assay; conditions: not given
T2 sequence (P48067 whole entry): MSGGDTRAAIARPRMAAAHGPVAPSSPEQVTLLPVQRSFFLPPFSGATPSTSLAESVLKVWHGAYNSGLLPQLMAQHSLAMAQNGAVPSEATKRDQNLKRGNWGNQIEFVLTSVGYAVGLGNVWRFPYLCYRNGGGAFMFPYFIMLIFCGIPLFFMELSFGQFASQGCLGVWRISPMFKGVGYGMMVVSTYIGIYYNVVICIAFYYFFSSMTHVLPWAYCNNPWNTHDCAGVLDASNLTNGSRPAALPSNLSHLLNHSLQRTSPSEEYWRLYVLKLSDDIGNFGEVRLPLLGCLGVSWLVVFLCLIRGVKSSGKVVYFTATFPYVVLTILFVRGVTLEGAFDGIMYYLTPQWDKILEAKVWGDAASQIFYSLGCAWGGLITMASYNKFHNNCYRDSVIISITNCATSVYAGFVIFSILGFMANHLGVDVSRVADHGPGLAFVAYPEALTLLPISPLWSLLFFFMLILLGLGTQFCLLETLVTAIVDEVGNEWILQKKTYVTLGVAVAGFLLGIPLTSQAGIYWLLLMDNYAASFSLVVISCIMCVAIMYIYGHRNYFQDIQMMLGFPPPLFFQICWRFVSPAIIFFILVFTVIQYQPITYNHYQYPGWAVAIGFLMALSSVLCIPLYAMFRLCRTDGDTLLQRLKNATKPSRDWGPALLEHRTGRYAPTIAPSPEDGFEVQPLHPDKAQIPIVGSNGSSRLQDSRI

Compound | EC50
O=C1NCC(c2ccccc2)C12CCN(C1CCCCC1(O)c1cccc(F)c1)CC2 (single isomer, unassigned; diastereomer 3) | 127 nM
O=C1NCC(c2ccccc2)C12CCN(C1CCCCC1(O)c1cccc(F)c1)CC2 (single isomer, unassigned; diastereomer 2) | 2600 nM
O=C1NCC(c2ccc(F)cc2)C12CCN(C1CCCCC1(O)c1cccc(Cl)c1)CC2 (single isomer, unassigned; diastereomer 1) | 6250 nM
COc1cccc(C2(O)CCCCC2N2CCC3(CC2)C(=O)NCC3c2ccc(F)cc2)c1 (single isomer, unassigned; diastereomer 2) | 2600 nM
O=C1NCC(c2ccccc2)C12CCN(C1CCCCC1(O)c1ccc(F)cc1)CC2 (single isomer, unassigned; diastereomer 2) | 825 nM
O=C1NC[C@@H](c2ccccc2)C12CCN(C1CCCCC1c1ccccc1)CC2 (stereo in doubt; 3) | 232 nM
COc1ccc(C2(O)CCCCC2N2CCC3(CC2)C(=O)NCC3c2ccccc2)cc1 (stereo not given) | 4480 nM
N#Cc1ccc(C2(O)CCCCC2N2CCC3(CC2)C(=O)NCC3c2ccc(F)cc2)cc1 (mixture of isomers) | 1950 nM
O=C1NCC(c2ccc(F)cc2)C12CCN(C1CCCCC1(O)c1ccccc1F)CC2 (single isomer, unassigned; diastereomer 1) | 596 nM
Cc1ccccc1C1(O)CCCCC1N1CCC2(CC1)C(=O)NCC2c1ccc(F)cc1 (single isomer, unassigned; diastereomer 4) | 69 nM
Cc1ccc(C2(O)CCCCC2N2CCC3(CC2)C(=O)NCC3c2ccc(F)cc2)cc1 (single isomer, unassigned; diastereomer 1) | 420 nM
COc1ccc(C2(O)CCCCC2N2CCC3(CC2)C(=O)NCC3c2ccc(F)cc2)cc1 (stereo in doubt) | 158 nM
O=C1NCC(c2ccc(F)cc2)C12CCN(C1CCCCC1(O)c1cccc(Cl)c1)CC2 (stereo in doubt; form 1) | 118 nM
COc1ccc(C2(O)CCCCC2N2CCC3(CC2)C(=O)NCC3c2ccc(F)cc2)cc1 (single isomer, unassigned; diastereomer 2) | 1180 nM
COc1cccc(C2(O)CCCCC2N2CCC3(CC2)C(=O)NCC3c2ccc(F)cc2)c1 (single isomer, unassigned; diastereomer 4) | 5300 nM
Cc1ccccc1C1(O)CCCCC1N1CCC2(CC1)C(=O)NCC2c1ccc(F)cc1 (single isomer, unassigned; diastereomer 1) | 596 nM
CC(C)(C)c1ccc(C2(O)CCCCC2N2CCC3(CC2)C(=O)NCC3c2ccc(F)cc2)cc1 (single isomer, unassigned; diastereomer 2) | > 30000 nM
O=C1NCC(c2ccccc2)C12CCN(C1CCCCC1(O)c1cccc(F)c1)CC2 (single isomer, unassigned; diastereomer 1) | 158 nM
COc1ccc(C2(O)CCCCC2N2CCC3(CC2)C(=O)NCC3c2ccc(F)cc2)cc1 (single isomer, unassigned; diastereomer 1) | 3300 nM
O=C1NCC(c2ccc(F)cc2)C12CCN(C1CCCCC1(O)c1ccccc1F)CC2 (stereo in doubt) | 1770 nM
CS(=O)(=O)c1ccc(C2(O)CCCCC2N2CCC3(CC2)C(=O)NCC3c2ccc(F)cc2)cc1 (stereo not given) | 18600 nM
CC(C)(C)c1ccc(C2(O)CCCCC2N2CCC3(CC2)C(=O)NCC3c2ccc(F)cc2)cc1 (single isomer, unassigned; diastereomer 1) | > 30000 nM
O=C1NCN(c2ccccc2)C12CCN(C1CCCCC1(O)c1ccccc1)CC2 (stereo not given) | 44 nM

Compound | EC50
Cc1cccc(C2(O)CCCCC2N2CCC3(CC2)C(=O)NCC3c2ccc(F)cc2)c1 (single isomer, unassigned; diastereomer 2) | 10700 nM
O=C1NCC(c2ccc(F)cc2)C12CCN(C1CCCCC1(O)c1ccccc1F)CC2 (single isomer, unassigned; diastereomer 4) | 69 nM
COc1cccc(C2(O)CCCCC2N2CCC3(CC2)C(=O)NCC3c2ccc(F)cc2)c1 (single isomer, unassigned; diastereomer 3) | 127 nM
Cc1ccccc1C1(O)CCCCC1N1CCC2(CC1)C(=O)NCC2c1ccc(F)cc1 (stereo in doubt) | 110 nM
Cc1ccc(C2(O)CCCCC2N2CCC3(CC2)C(=O)NCC3c2ccc(F)cc2)cc1 (single isomer, unassigned; diastereomer 4) | 132 nM
Cc1ccc(C2(O)CCCCC2N2CCC3(CC2)C(=O)NCC3c2ccc(F)cc2)cc1 (single isomer, unassigned; diastereomer 3) | 437 nM
O=C1NCC(c2ccc(F)cc2)C12CCN(C1CCCCC1(O)c1cccc(F)c1)CC2 (single isomer, unassigned; diastereomer 4) | 646 nM
Cc1ccc(C2(O)CCCCC2N2CCC3(CC2)C(=O)NCC3c2ccc(F)cc2)cc1 (single isomer, unassigned; diastereomer 2) | > 30000 nM
COc1cccc(C2(O)CCCCC2N2CCC3(CC2)C(=O)NCC3c2ccc(F)cc2)c1 (stereo in doubt) | 158 nM
O=C1NCC(c2ccc(F)cc2)C12CCN(C1CCCCC1(O)c1cccc(F)c1)CC2 (single isomer, unassigned; diastereomer 1) | 95 nM
COc1cccc(C2(O)CCCCC2N2CCC3(CC2)C(=O)NCC3c2ccccc2)c1 (stereo not given) | > 30000 nM
O=C1NCC(c2ccc(F)cc2)C12CCN(C1CCCCC1(O)c1cccc(Cl)c1)CC2 (single isomer, unassigned; diastereomer 2) | 2340 nM
N#Cc1ccc(C2(O)CCCCC2N2CCC3(CC2)C(=O)NCC3c2ccc(F)cc2)cc1 (single isomer, unassigned; diastereomer 2) | 11300 nM
O=C1NCC(c2ccccc2)C12CCN(C1CCCCC1(O)c1cccc(F)c1)CC2 (single isomer, unassigned; diastereomer 4) | 5300 nM
O=C1NCC(c2ccc(F)cc2)C12CCN(C1CCCCC1(O)c1cccc(F)c1)CC2 (single isomer, unassigned; diastereomer 2) | 77 nM
O=C1NCC(c2ccc(F)cc2)C12CCN(C1CCCCC1(O)c1ccccc1OC(F)(F)F)CC2 (stereo not given) | 1390 nM
Cc1ccccc1C1(O)CCCCC1N1CCC2(CC1)C(=O)NCC2c1ccc(F)cc1 (single isomer, unassigned; diastereomer 3) | 17700 nM
O=C1NCC(c2ccc(F)cc2)C12CCN(C1CCCCC1(O)c1cccc(Cl)c1)CC2 (stereo in doubt; form 2) | 73 nM
Cc1cccc(C2(O)CCCCC2N2CCC3(CC2)C(=O)NCC3c2ccc(F)cc2)c1 (single isomer, unassigned; diastereomer 1) | 2640 nM
O=C1NCC(c2ccc(F)cc2)C12CCN(C1CCCCC1(O)c1ccccc1F)CC2 (single isomer, unassigned; diastereomer 2) | 110 nM
O=C1NCC(c2ccc(F)cc2)C12CCN(C1CCCCC1(O)c1ccc(C(F)(F)F)cc1)CC2 (stereo not given) | 1310 nM
COc1ccc(C2(O)CCCCC2N2CCC3(CC2)C(=O)NCC3c2ccc(F)cc2)cc1 (single isomer, unassigned; diastereomer 3) | 1130 nM

test system: not listed separately; assay: Intrinsic clearance in mouse microsome; format: ADME; conditions: microsomes

Compound | microsomal CLint
O=C1NCC(c2ccc(F)cc2)C12CCN(C1CCCCC1(O)c1ccccc1F)CC2 (single isomer, unassigned; diastereomer 4) | 39 µL/min/mg
O=C1NCC(c2ccc(F)cc2)C12CCN(C1CCCCC1(O)c1cccc(F)c1)CC2 (single isomer, unassigned; diastereomer 2) | 16 µL/min/mg
